Measurements as given in article PMC5218480 (PLoS ONE, 2017).

Test system: MV-4-11 cells
Experiment: Gene expression microarray analysis (Affymetrix PrimeView) and GSEA
Assay type: cell-based, human
Set-up: RFU PODN (11730768_x_at) / Fold change /veh PODN (11730768_x_at) / RFU LINC00158 (11744669_a_at) / Fold change /veh LINC00158 (11744669_a_at) / RFU DUSP10 (11751237_a_at) / Fold change /veh DUSP10 (11751237_a_at) / RFU ID3 (11757404_x_at) / Fold change /veh ID3 (11757404_x_at) / RFU PLEKHG5 (11737974_s_at) / Fold change /veh PLEKHG5 (11737974_s_at) / RFU LRRC4B (11730491_at) / Fold change /veh LRRC4B (11730491_at) / RFU GIMAP4 (11747438_a_at) / Fold change /veh GIMAP4 (11747438_a_at) / RFU KRT8 (11758183_x_at) / Fold change /veh KRT8 (11758183_x_at) / RFU CNN1 (11734310_a_at) / Fold change /veh CNN1 (11734310_a_at) / RFU VPS37D (11726825_at) / Fold change /veh VPS37D (11726825_at) / RFU C10orf10 (11716522_x_at) / Fold change /veh C10orf10 (11716522_x_at) / RFU KIR2DL2 /// KIR2DL4 /// KIR2DL5A /// KIR2DL5B /// KIR2DS1 /// KIR2DS2 /// KIR2DS3 /// KIR2DS4 /// KIR3DL3 /// KIR3DL3 /// KIR3DS1 (11738374_at) / Fold change /veh KIR2DL2 /// KIR2DL4 /// KIR2DL5A /// KIR2DL5B /// KIR2DS1 /// KIR2DS2 /// KIR2DS3 /// KIR2DS4 /// KIR3DL3 /// KIR3DL3 /// KIR3DS1 (11738374_at) / RFU C1QL1 (11718748_at) / Fold change /veh C1QL1 (11718748_at) / RFU TMPRSS4 (11747572_a_at) / Fold change /veh TMPRSS4 (11747572_a_at) / RFU HAMP (11756126_x_at) / Fold change /veh HAMP (11756126_x_at) / RFU RNFT2 (11725882_a_at) / Fold change /veh RNFT2 (11725882_a_at) / RFU NR4A2 (11747474_a_at) / Fold change /veh NR4A2 (11747474_a_at) / RFU ABCC12 (11746883_a_at) / Fold change /veh ABCC12 (11746883_a_at) / RFU TMEM136 (11760407_x_at) / Fold change /veh TMEM136 (11760407_x_at) / RFU CLDN22 /// WWC2 (11732394_at) / Fold change /veh CLDN22 /// WWC2 (11732394_at) / RFU HLA-DPB1 (11760878_x_at) / Fold change /veh HLA-DPB1 (11760878_x_at) / RFU SPINT1 (11716480_a_at) / Fold change /veh SPINT1 (11716480_a_at) / RFU GAP43 (11754022_s_at) / Fold change /veh GAP43 (11754022_s_at) / RFU A4GNT (11735810_at) / Fold change /veh A4GNT (11735810_at) / RFU PRB3 (11715151_x_at) / Fold change /veh PRB3 (11715151_x_at) / RFU TUBB4B (11761932_at) / Fold change /veh TUBB4B (11761932_at) / RFU CAPN14 (11732068_a_at) / Fold change /veh CAPN14 (11732068_a_at) / RFU TMCC2 (11721928_a_at) / Fold change /veh TMCC2 (11721928_a_at) / RFU IRGQ (11745062_a_at) / Fold change /veh IRGQ (11745062_a_at) / RFU FAM174B (11720279_a_at) / Fold change /veh FAM174B (11720279_a_at) / RFU TMPRSS4 (11748680_a_at) / Fold change /veh TMPRSS4 (11748680_a_at) / RFU FAM212B (11763350_a_at) / Fold change /veh FAM212B (11763350_a_at) / RFU PLEKHG5 (11743358_a_at) / Fold change /veh PLEKHG5 (11743358_a_at) / RFU ZSCAN30 (11745921_a_at) / Fold change /veh ZSCAN30 (11745921_a_at) / RFU CMKLR1 (11741424_a_at) / Fold change /veh CMKLR1 (11741424_a_at) / RFU LOC101060620 /// MAPK8IP1 (11723275_at) / Fold change /veh LOC101060620 /// MAPK8IP1 (11723275_at) / RFU SPTSSB (11747773_x_at) / Fold change /veh SPTSSB (11747773_x_at) / RFU PRSS12 (11739890_at) / Fold change /veh PRSS12 (11739890_at) / RFU BIN1 (11741810_x_at) / Fold change /veh BIN1 (11741810_x_at) / RFU WNT11 (11732464_a_at) / Fold change /veh WNT11 (11732464_a_at) / RFU C10orf10 (11716521_a_at) / Fold change /veh C10orf10 (11716521_a_at) / RFU C5orf56 (11738089_at) / Fold change /veh C5orf56 (11738089_at) / RFU CYB561 (11721691_x_at) / Fold change /veh CYB561 (11721691_x_at) / RFU ANKRD19P (11752326_a_at) / Fold change /veh ANKRD19P (11752326_a_at) / RFU OR2T12 /// OR2T33 /// OR2T8 (11738714_s_at) / Fold change /veh OR2T12 /// OR2T33 /// OR2T8 (11738714_s_at) / RFU VCAN (11748164_a_at) / Fold change /veh VCAN (11748164_a_at) / RFU JSRP1 (11732532_at) / Fold change /veh JSRP1 (11732532_at) / RFU KRTAP10-11 (11738290_x_at) / Fold change /veh KRTAP10-11 (11738290_x_at) / RFU MYO3A (11730013_a_at) / Fold change /veh MYO3A (11730013_a_at) / RFU EBF3 (11725865_a_at) / Fold change /veh EBF3 (11725865_a_at) / RFU CAMK2N1 (11719241_x_at) / Fold change /veh CAMK2N1 (11719241_x_at) / RFU C5orf56 (11738088_a_at) / Fold change /veh C5orf56 (11738088_a_at) / RFU OLFML3 (11715873_a_at) / Fold change /veh OLFML3 (11715873_a_at) / RFU LOC100653217 /// NTM (11731650_a_at) / Fold change /veh LOC100653217 /// NTM (11731650_a_at) / RFU MAPK11 (11762145_a_at) / Fold change /veh MAPK11 (11762145_a_at) / RFU FIZ1 (11724087_x_at) / Fold change /veh FIZ1 (11724087_x_at) / RFU OASL (11726364_x_at) / Fold change /veh OASL (11726364_x_at) / RFU SOX15 (11748057_x_at) / Fold change /veh SOX15 (11748057_x_at) / RFU CD79A (11719716_a_at) / Fold change /veh CD79A (11719716_a_at) / RFU HIST1H1D (11736915_at) / Fold change /veh HIST1H1D (11736915_at) / RFU CASKIN2 (11723855_a_at) / Fold change /veh CASKIN2 (11723855_a_at) / RFU LOC730098 (11760151_x_at) / Fold change /veh LOC730098 (11760151_x_at) / RFU OR4N2 (11742367_at) / Fold change /veh OR4N2 (11742367_at) / RFU PRRT2 (11749266_a_at) / Fold change /veh PRRT2 (11749266_a_at) / RFU SNX32 (11753110_a_at) / Fold change /veh SNX32 (11753110_a_at) / RFU CDHR5 (11726645_a_at) / Fold change /veh CDHR5 (11726645_a_at) / RFU RCAN1 (11760418_a_at) / Fold change /veh RCAN1 (11760418_a_at) / RFU FAM167A (11723789_a_at) / Fold change /veh FAM167A (11723789_a_at) / RFU FAM26E (11764081_at) / Fold change /veh FAM26E (11764081_at) / RFU ISYNA1 (11749810_s_at) / Fold change /veh ISYNA1 (11749810_s_at) / RFU ACY1 (11761880_at) / Fold change /veh ACY1 (11761880_at) / RFU 11764098_at / Fold change /veh 11764098_at / RFU SAMD14 (11745864_x_at) / Fold change /veh SAMD14 (11745864_x_at) / RFU NPB (11741838_a_at) / Fold change /veh NPB (11741838_a_at) / RFU TMPRSS6 (11731388_a_at) / Fold change /veh TMPRSS6 (11731388_a_at) / RFU KRTAP10-2 (11738614_at) / Fold change /veh KRTAP10-2 (11738614_at) / RFU ARHGAP8 /// PRR5-ARHGAP8 (11727945_x_at) / Fold change /veh ARHGAP8 /// PRR5-ARHGAP8 (11727945_x_at) / RFU KRTAP5-7 /// NADSYN1 (11734609_at) / Fold change /veh KRTAP5-7 /// NADSYN1 (11734609_at) / RFU RASL12 (11751679_a_at) / Fold change /veh RASL12 (11751679_a_at) / RFU CDKN2B (11736163_a_at) / Fold change /veh CDKN2B (11736163_a_at) / RFU PRF1 (11729649_at) / Fold change /veh PRF1 (11729649_at) / RFU, ZNF638 /// ZNF638-IT1 / Fold change vs veh, ZNF638 /// ZNF638-IT1 / RFU, PANK3 / Fold change vs veh, PANK3 / RFU, SH3YL1 / Fold change vs veh, SH3YL1 / RFU, ZEB2 / Fold change vs veh, ZEB2 / RFU, NRIP1 / Fold change vs veh, NRIP1 / RFU, PTTG1IP / Fold change vs veh, PTTG1IP / RFU, CAPN2 / Fold change vs veh, CAPN2 / RFU, MED14 / Fold change vs veh, MED14 / RFU, SNORA58 / Fold change vs veh, SNORA58 / RFU, C1orf63 / Fold change vs veh, C1orf63 / RFU, LRRFIP1 / Fold change vs veh, LRRFIP1 / RFU, NDUFAF7 / Fold change vs veh, NDUFAF7 / RFU, SLC12A2 / Fold change vs veh, SLC12A2 / RFU, IBTK / Fold change vs veh, IBTK / RFU, ESF1 / Fold change vs veh, ESF1 / Fold change vs veh, TMEM50B / RFU, TAOK1 / Fold change vs veh, TAOK1 / RFU, ACBD3 / Fold change vs veh, ACBD3 / RFU, TMA16 / Fold change vs veh, TMA16 / RFU, RWDD3 / Fold change vs veh, RWDD3 / RFU, BCAT1 / Fold change vs veh, BCAT1 / RFU, EDEM3 / Fold change vs veh, EDEM3 / RFU, TMEM33 / Fold change vs veh, TMEM33 / RFU, WDR75 / Fold change vs veh, WDR75 / RFU, AHCTF1 / Fold change vs veh, AHCTF1 / RFU, TFRC / Fold change vs veh, TFRC / RFU, ZDHHC17 / Fold change vs veh, ZDHHC17 / RFU, NOM1 / Fold change vs veh, NOM1 / RFU, ARL8B / Fold change vs veh, ARL8B / RFU, ZBTB11 / Fold change vs veh, ZBTB11 / RFU, TAMM41 / Fold change vs veh, TAMM41 / RFU, KIAA1704 /// LOC100996395 / Fold change vs veh, KIAA1704 /// LOC100996395 / RFU, ING1 / Fold change vs veh, ING1 / RFU, TRMT61B / Fold change vs veh, TRMT61B / RFU, FUBP3 / Fold change vs veh, FUBP3 / RFU, TP53 / Fold change vs veh, TP53 / RFU, TNKS2 / Fold change vs veh, TNKS2 / RFU, ZFP14 / Fold change vs veh, ZFP14 / RFU, ACTR2 / Fold change vs veh, ACTR2 / RFU, PPP3R1 / Fold change vs veh, PPP3R1 / RFU, PIK3R1 / Fold change vs veh, PIK3R1 / RFU, HNRNPA1 / Fold change vs veh, HNRNPA1 / RFU, RNF170 / Fold change vs veh, RNF170 / RFU, ZNF28 / Fold change vs veh, ZNF28 / RFU, RNGTT / Fold change vs veh, RNGTT / RFU, OGT / Fold change vs veh, OGT / RFU, BRD1 / Fold change vs veh, BRD1 / RFU, MARS / Fold change vs veh, MARS / RFU, ZNF655 / Fold change vs veh, ZNF655 / RFU, FAHD1 / Fold change vs veh, FAHD1 / RFU, BDP1 / Fold change vs veh, BDP1 / RFU, LRRCC1 / Fold change vs veh, LRRCC1 / RFU, ARID1A / Fold change vs veh, ARID1A / RFU, ZNF146 / Fold change vs veh, ZNF146 / RFU, ZNF330 / Fold change vs veh, ZNF330 / RFU, GPN3 / Fold change vs veh, GPN3 / RFU, C9orf123 / Fold change vs veh, C9orf123 / RFU, N4BP2L2 / Fold change vs veh, N4BP2L2 / RFU, ARFIP1 / Fold change vs veh, ARFIP1 / RFU, FAM179B / Fold change vs veh, FAM179B / RFU, BCL10 / Fold change vs veh, BCL10 / RFU, UHRF1BP1L / Fold change vs veh, UHRF1BP1L / RFU, BET1 / Fold change vs veh, BET1 / RFU, CNOT2 / Fold change vs veh, CNOT2 / RFU, ZNF268 / Fold change vs veh, ZNF268 / Fold change vs veh, ZNF507 / RFU, DGCR2 / Fold change vs veh, DGCR2 / RFU, WDSUB1 / Fold change vs veh, WDSUB1 / Fold change vs veh, HSP90B1 /// MIR3652 / RFU, ADSS / Fold change vs veh, ADSS / RFU, GK / Fold change vs veh, GK / RFU, ZNF148 / Fold change vs veh, ZNF148 / RFU, TAF9 / Fold change vs veh, TAF9 / RFU, SLC1A5 / Fold change vs veh, SLC1A5 / RFU, SLMO2 / Fold change vs veh, SLMO2 / RFU, ABCC4 / Fold change vs veh, ABCC4 / RFU, LOC101060439 /// RAP1B / Fold change vs veh, LOC101060439 /// RAP1B / RFU, RFX7 / Fold change vs veh, RFX7 / RFU, GTPBP10 / Fold change vs veh, GTPBP10 / RFU, CNEP1R1 / Fold change vs veh, CNEP1R1 / RFU, BIVM-ERCC5 /// ERCC5 / Fold change vs veh, BIVM-ERCC5 /// ERCC5 / RFU, ILF3 / Fold change vs veh, ILF3 / RFU 11762660_at / Fold change /veh 11762660_at / RFU VCAN (11757783_s_at) / Fold change /veh VCAN (11757783_s_at) / RFU DDX43 (11728927_at) / Fold change /veh DDX43 (11728927_at) / RFU KRT8 (11758188_x_at) / Fold change /veh KRT8 (11758188_x_at) / RFU NKD1 (11759106_at) / Fold change /veh NKD1 (11759106_at) / RFU SRD5A1 (11742802_a_at) / Fold change /veh SRD5A1 (11742802_a_at) / RFU TPSAB1 /// TPSB2 (11721975_s_at) / Fold change /veh TPSAB1 /// TPSB2 (11721975_s_at) / RFU GSTM3 (11746129_a_at) / Fold change /veh GSTM3 (11746129_a_at) / RFU IL23R (11737362_x_at) / Fold change /veh IL23R (11737362_x_at) / RFU TMEM51 (11727254_a_at) / Fold change /veh TMEM51 (11727254_a_at) / RFU PIWIL2 (11732686_x_at) / Fold change /veh PIWIL2 (11732686_x_at) / RFU ORM1 (11744905_x_at) / Fold change /veh ORM1 (11744905_x_at) / RFU CCDC152 (11743942_at) / Fold change /veh CCDC152 (11743942_at) / RFU ECM1 (11717891_a_at) / Fold change /veh ECM1 (11717891_a_at) / RFU IL23R (11748794_a_at) / Fold change /veh IL23R (11748794_a_at) / RFU TNFAIP8L3 (11732012_x_at) / Fold change /veh TNFAIP8L3 (11732012_x_at) / RFU MBOAT4 (11741988_at) / Fold change /veh MBOAT4 (11741988_at) / RFU 11764193_at / Fold change /veh 11764193_at / RFU TMEM53 (11763286_at) / Fold change /veh TMEM53 (11763286_at) / RFU MAGEB2 (11727129_at) / Fold change /veh MAGEB2 (11727129_at) / RFU TMEM200A (11744735_a_at) / Fold change /veh TMEM200A (11744735_a_at) / RFU CCDC152 (11751479_a_at) / Fold change /veh CCDC152 (11751479_a_at) / RFU FAM211A (11726209_a_at) / Fold change /veh FAM211A (11726209_a_at) / RFU RGS16 (11746705_a_at) / Fold change /veh RGS16 (11746705_a_at) / RFU VCAN (11755009_s_at) / Fold change /veh VCAN (11755009_s_at) / RFU RHOB (11743442_s_at) / Fold change /veh RHOB (11743442_s_at) / RFU RGS16 (11720943_a_at) / Fold change /veh RGS16 (11720943_a_at) / RFU RGS16 (11720944_at) / Fold change /veh RGS16 (11720944_at) / RFU, VPS4B / Fold change vs veh, VPS4B / RFU, CREB1 / Fold change vs veh, CREB1 / RFU, DNAJC13 / Fold change vs veh, DNAJC13 / RFU, GNAQ / Fold change vs veh, GNAQ / RFU, CDK5R1 / Fold change vs veh, CDK5R1 / RFU, ZRANB3 / Fold change vs veh, ZRANB3 / RFU, CUL4A / Fold change vs veh, CUL4A / RFU, CCNY / Fold change vs veh, CCNY / RFU, UFL1 / Fold change vs veh, UFL1 / RFU, COG3 / Fold change vs veh, COG3 / RFU, DIAPH2 / Fold change vs veh, DIAPH2 / RFU, SKA2 / Fold change vs veh, SKA2 / RFU, AFF3 / Fold change vs veh, AFF3 / RFU, LMF1 / Fold change vs veh, LMF1 / RFU, IPO11 / Fold change vs veh, IPO11 / RFU, DFFB / Fold change vs veh, DFFB / RFU, FOXP1 / Fold change vs veh, FOXP1 / RFU, CARD8 / Fold change vs veh, CARD8 / RFU, STRN3 / Fold change vs veh, STRN3 / RFU, ADK / Fold change vs veh, ADK / RFU, RASSF2 / Fold change vs veh, RASSF2 / RFU, WIPF1 / Fold change vs veh, WIPF1 / RFU, LARP1B / Fold change vs veh, LARP1B / RFU, RASA1 / Fold change vs veh, RASA1 / RFU, RB1 / Fold change vs veh, RB1 / RFU, PPFIA1 / Fold change vs veh, PPFIA1 / RFU, MAT2A / Fold change vs veh, MAT2A / RFU, CCT5 / Fold change vs veh, CCT5 / RFU, WDR92 / Fold change vs veh, WDR92 / RFU, CUX1 / Fold change vs veh, CUX1 / RFU, TTC7A / Fold change vs veh, TTC7A / RFU, TMEM135 / Fold change vs veh, TMEM135 / RFU, DEPTOR / Fold change vs veh, DEPTOR / RFU, CPM / Fold change vs veh, CPM / RFU, DNAJB6 / Fold change vs veh, DNAJB6 / RFU, CACNA2D3 / Fold change vs veh, CACNA2D3 / RFU, DTX4 / Fold change vs veh, DTX4 / RFU, TFCP2 / Fold change vs veh, TFCP2 / RFU, GMCL1 /// GMCL1P1 / Fold change vs veh, GMCL1 /// GMCL1P1 / RFU, AEBP2 / Fold change vs veh, AEBP2 / RFU, SNHG1 /// SNORD22 /// SNORD25 /// SNORD26 /// SNORD27 /// SNORD28 /// SNORD29 /// SNORD31 / Fold change vs veh, SNHG1 /// SNORD22 /// SNORD25 /// SNORD26 /// SNORD27 /// SNORD28 /// SNORD29 /// SNORD31 / Fold change (Aza/veh), C12orf56 (ProbeSet 11735607_a_at) / Fold change (ACY-1035/veh), C12orf56 (ProbeSet 11735607_a_at) / Fold change (Aza/veh), FGFR1OP (ProbeSet 11751329_s_at) / Fold change (ACY-1035/veh), FGFR1OP (ProbeSet 11751329_s_at) / Fold change (Aza/veh), VPS36 (ProbeSet 11739960_a_at) / Fold change (ACY-1035/veh), VPS36 (ProbeSet 11739960_a_at) / RFU SYPL1 (11715823_x_at) / Fold change /veh SYPL1 (11715823_x_at) / RFU IGFBP7 (11715501_s_at) / Fold change /veh IGFBP7 (11715501_s_at) / RFU REEP3 (11722064_at) / Fold change /veh REEP3 (11722064_at) / RFU IGLL1 (11728026_x_at) / Fold change /veh IGLL1 (11728026_x_at): dose or concentration left out as unconfirmed
Conditions: MV-4-11 cells, 48 hours

Nc1ncn([C@@H]2O[C@H](CO)[C@@H](O)[C@H]2O)c(=O)n1 [azacitidine] was tested, and the “Fold change /veh ORM1 (11744905_x_at)” value was 1.26.
